The test system of this assay is C57BL/6 mice. Put plainly: Delayed-type hypersensitivity (DTH) ear swelling response after Influvac vaccination in diet-supplemented mice. It is filed as in vivo, mouse. The procedure: The effect of diets comprising 2′-FL and/or betagalacto-oligosaccharides was tested in a mouse model wherein a response to an antigen is measured by a delayed-type hypersensitivity (DTH) response. This DTH response in the ears after local challenge with an antigen present in a vaccine is a measure of Th1 cell proliferation. During response to infection and/or vaccination Th1 cells proliferate in response to the challenge with the antigen. These Th1 cells infiltrate the ear when the ear is subsequently challenged with the antigen and cause swelling. Infiltration with the Th1 cells in the ear takes about 24 h and the swelling is therefore delayed. The more Th1 cells proliferated during initial vaccination and/or infection, the more DTH upon challenging with the antigen is observed.
6-8 Weeks old female C57BL/6 mice (Charles River) received semi-purified AIN-93G-based diets (Research Diet Service, Wijk bij Duurstede, the Netherlands), comprising
1) 1 wt % betagalacto-oligosaccharide (GOS, source Vivinal GOS, Borculo Domo), fructo-oligosaccharide (FOS, Source RaftilineHP, Orafti) and galacturonic acid oligosaccharide (source AOS) in a 9:1:1.1 ratio. AOS were produced from pectin (Südzucker AG, Mannheim, Germany), with a DP of 1-20. It consists of approximately 75% galacturonic acid oligomers, based on total weight,
2) 1 wt % 2′fucosyllactose (2′-FL),
3) 1 wt % betagalacto-oligosaccharides, fructo-oligosaccharides and galacturonic acid oligosaccharide (AOS) in a 9:1:1.1 ratio and 1 wt % 2′-FL.
4) 0.5 wt % betagalacto-oligosaccharides, fructo-oligosaccharides and galacturonic acid oligosaccharide (AOS) in a 9:1:1.1 ratio and 0.5 wt % 2′-FL.
All groups were compared to the unsupplemented control diet (control and sham control group). Dietary supplementation started 14 days before the first vaccination and lasted until the end of the experiment, 31 days after the first vaccination.
Vaccination experiments were performed using Influvac (Solvay Pharmaceuticals, Weesp, the Netherlands) from season 2005/2006. The mice received a primary vaccination and a booster vaccination, consisting of a subcutaneous (sc) injection of a 1:1 mix of vaccine and adjuvant in a total volume of 100 μl. The booster vaccination was given at 21 days after the primary vaccination. The experiments ended 10 days after booster vaccination. Negative control groups that were included received injections with a 1:1 mix of PBS and adjuvant in a total volume of 100 μl (sham control). Ear thickness was measured in duplicate before vaccine challenge and 24 h thereafter, using a digital micrometer (Mitutoyo Digimatic 293561, Veenendaal, the Netherlands). The DTH response was calculated by subtracting the basal ear thickness from the value at 24 h after challenge.

For 2′-fucosyllactose [1% 2′-FL], under “compared with control diet”, the “increase of DTH response” value turned out to be 71%. Moreover, the “effect on ear swelling / DTH response (in words)” value (compared with control-fed animals) is on record as “increased ear swelling”. In addition, the “Δ DTH” value (ear swelling DTH minus sham control) is recorded as 80.4 μm. Moreover, the “Relative DTH” value (Δ DTH relative to control diet (=1)) is 1.71.

For the origin of these results see patent US11090321B2, “Mixture of non-digestible oligosaccharides for stimulating the immune system” (N.V. Nutricia, priority 2009, dated 2021).
